{
  "source": "patent US20230165838A1",
  "about": "“TREATMENT FOR ACUTE RESPIRATORY DISTRESS SYNDROME” (DIMERIX BIOSCIENCE LTD., priority 2020, published 2023)",
  "origin": "cited, not measured here",
  "test_system": "monocytes",
  "settings": "MCP-1 induced; mechanism seems to require GPI-anchored proteins such as CD55, CD59 and CD16 (Yokochi, S. 2001)",
  "data": [
    {"smiles": "O=C(O)C[CH2][Ge](=[O])[O][Ge](=[O])[CH2]CC(=O)O", "note": "[Propagermanium, 3-[(2-Carboxyethyl-oxogermyl)oxy-oxogermyl]propanoic acid]", "values": [
      {"measurement": "in vitro chemotactic migration of monocytes by MCP-1", "value": "specifically inhibit"}
    ]}
  ]
}
